These results are taken from PubChem BioAssay AID2060899 (Molecular Pharmacology Branch, DTP, NCI, 2025).

This assay has as its system 565726-208-R1-J5-PDC complex spheroids, growth inhibition. As to the kind of experiment: Anticancer human tumor 565726-208-R1-J5-PDC patient-derived pancreatic adenocarcinoma cell line growth inhibition [RAS]. The following applies: for viability, T/C: stronger effect = lower value. The source says:
RAS pathway inhibitors in Combinations in Complex Spheroids
A high-throughput screen of multi-cell type tumor spheroids was designed to identify active combinations of RAS pathway inhibitors and targeted small molecules. Complex spheroids include a stromal component modeled by human endothelial cells (HUVEC) and fibroblasts modeled by human mesenchymal stem cells (MSCs). The concentration ranges selected for each drug and investigational agent were based upon clinically achievable concentrations if the clinical Cmax of the agent was known.
Compounds. The drugs and investigational agents: abemaciclib (NSC768073), cobimetinib (NSC768068), divarasib (GDC6063, NSC841802), docetaxel (NSC628503), GDC-1971 (RLY-1971, NSC841576), gemcitabine (NSC613327), inavolisib (NSC800729), ipatasertib (NSC767898), KB-0742 (NSC834161), MRTX-1133 (NSC836407), osimertinib (NSC779217), RMC-4630 (NSC839698), RMC-6236 (NSC851965), RMC-6291 (NSC852671), Ro-3306 (NSC812927), sapanisertib (NSC764658), SN-38 (NSC673596), staurosporine (NSC755774), SY5609 (NSC837396), and tovorafenib (DAY101, NSC766906), were obtained from the National Cancer Institute (NCI) Developmental Therapeutics Program Chemical Repository. The FDA-approved anticancer drug set is available from the NCI Developmental Therapeutics Program. […] The stock solutions were prepared in dimethyl sulfoxide (DMSO, Sigma-Aldrich, St. Louis, MO, cat. D2650) at 800-fold the tested concentration and stored at -70 degrees C prior to their use. All drugs and investigational agents were tested over a range starting from a high concentration at or near the clinical Cmax and decreasing in half-log increments. If the clinical Cmax for an agent had not been determined, the highest concentration tested was 10 microM.
Cell Culture. All cells were maintained in an incubator at 37 degrees C and 5% CO2 with 95% humidity. The PDC lines were cultured according to standard operating procedures established by the NCI PDMR. All PDCs were thawed and cultured in Matrigel-coated flasks prepared with a working solution of 1X Ham's F-12 nutrient mix, without supplementation (Invitrogen, Waltham, MA, cat. 11765054), 100 U/mL penicillin-streptomycin (Invitrogen, cat. 15140122), and 2.5% Matrigel (Corning Inc., Corning, NY, cat. 354248) for the first three passages. The 362531-283-R-J2-PDC and 782815-120-R-J1-PDC lines were cultured in 6C/Colon 1B media, which includes advanced DMEM/F-12 (Thermo Fisher Scientific, cat. 12634028), 10 mM HEPES (Thermo Fisher Scientific, cat. 15630080), 1X GlutaMAX supplement (Thermo Fisher Scientific, cat. 35050061), 0.1 mg/mL primocin (InvivoGen, San Diego, CA, cat. ant-pm-2), 10% defined fetal bovine serum, heat inactivated (HyClone Laboratories Inc., Logan, UT, cat. SH30070.03HI), 50% L-WRN conditioned media (ATCC, cat. CRL-3276), 1.25 mM N-Acetyl-L-cysteine (Sigma-Aldrich, cat. A9165), 10 mM nicotinamide (Sigma-Aldrich, cat. N0636), 1X B-27 supplement (Thermo Fisher Scientific, cat. 17504044), 1X N-2 supplement (Thermo Fisher Scientific, cat. 17502048), 50 ng/mL human EGF (Thermo Fisher Scientific, cat. PHG0311), and 10 microM Y-27632 dihydrochloride (Tocris Bioscience, cat. 1254). The K12877-001-R-J1-PDC line was cultured in 6I media, which includes all 6C/Colon 1B media plus 10 ng/mL human FGF-10 (PeproTech, cat. 100-26), 1 ng/mL human FGF-2 (PeproTech, cat. 100-18B), 1 µM prostaglandin E2 (Tocris Bioscience, cat. 2296), […] hydrocortisone (Sigma-Aldrich, cat. H4001), and […] bovine insulin (Sigma-Aldrich, cat. I6634). The K86415-001-R-J1-PDC line was cultured in 6D media, which includes all 6C/Colon 1B media components minus the L-WRN conditioned media. The 485176-168-R4-J1-PDC was cultured in PANC media, which includes all 6C/Colon 1B media plus 100 ng/mL human FGF-10 (PeproTech, cat. 100-26), 500 nM SB-431542 (Selleckchem, cat. S1067), and 10 nM gastrin (Tocris Bioscience, cat. 3006). […]

Some results are limits rather than exact numbers.
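Note: spheroids exposed to compounds for seven days before readout.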

As usually defined, the IC50 is the point on the concentration scale where inhibition reaches its midpoint. One may read the viability, T/C as the ratio of treated to control. With `CC(=O)OC12COC1CC(O)C1(C)C(=O)C(O)C3=C(C)C(OC(=O)C(O)C(NC(=O)OC(C)(C)C)c4ccccc4)CC(O)(C(OC(=O)c4ccccc4)C21)C3(C)C` (centres undefined) + C#Cc1c(F)ccc2cc(O)cc(-c3ncc4c(N5CC6CCC(C5)N6)nc(OCC56CCCN5CC(F)C6)nc4c3F)c12, the IC50 runs as follows: (curve of first compound, second compound 0.0316 µM) under 31.6 nM; (curve of first compound, second compound 0.1 µM) under 31.6 nM; (curve of first compound, second compound 0.316 µM) under 31.6 nM; (curve of first compound, second compound 1 µM) under 31.6 nM; (curve of first compound, second compound 3.16 µM) under 31.6 nM; (curve of first compound, second compound 10 µM) under 31.6 nM. The viability, T/C runs as follows: (second compound 0.0316 µM, first compound 0.0316 µM) 18.9%; (second compound 0.0316 µM, first compound 0.1 µM) 20.3%; (second compound 0.0316 µM, first compound 0.316 µM) 14.2%; (second compound 0.0316 µM, first compound 1 µM) 19.1%; (second compound 0.0316 µM, first compound 3.16 µM) 21.4%; (second compound 0.0316 µM, first compound 10 µM) 27%. In addition, the viability, T/C reads like this: (second compound 0.1 µM, first compound 0.0316 µM) 16.9%; (second compound 0.1 µM, first compound 0.1 µM) 20.3%; (second compound 0.1 µM, first compound 0.316 µM) 19.1%; (second compound 0.1 µM, first compound 1 µM) 15.5%; (second compound 0.1 µM, first compound 3.16 µM) 18.8%; (second compound 0.1 µM, first compound 10 µM) 29.8%. The viability, T/C is, setting by setting: (second compound 0.316 µM, first compound 0.0316 µM) 18.8%; (second compound 0.316 µM, first compound 0.1 µM) 21.2%; (second compound 0.316 µM, first compound 0.316 µM) 16.1%; (second compound 0.316 µM, first compound 1 µM) 18.1%; (second compound 0.316 µM, first compound 3.16 µM) 22.8%; (second compound 0.316 µM, first compound 10 µM) 30.4%. Also, the viability, T/C is 20% (second compound 1 µM, first compound 0.0316 µM); 21.3% (second compound 1 µM, first compound 0.1 µM); 14.5% (second compound 1 µM, first compound 0.316 µM); 17.3% (second compound 1 µM, first compound 1 µM); 24.9% (second compound 1 µM, first compound 3.16 µM); 26.6% (second compound 1 µM, first compound 10 µM). Further, the viability, T/C (second compound 3.16 µM, first compound 0.0316 µM) is 19.3%; the viability, T/C (second compound 3.16 µM, first compound 0.1 µM) was 24.1%; the viability, T/C (second compound 3.16 µM, first compound 0.316 µM) is 23.5%; the viability, T/C (second compound 3.16 µM, first compound 1 µM) is 19.9%; the viability, T/C (second compound 3.16 µM, first compound 3.16 µM) was 25.9%; the viability, T/C (second compound 3.16 µM, first compound 10 µM) was 26.7%. For the same molecule, the viability, T/C runs as follows: (second compound 10 µM, first compound 0.0316 µM) 17.7%; (second compound 10 µM, first compound 0.1 µM) 23.9%; (second compound 10 µM, first compound 0.316 µM) 22.1%; (second compound 10 µM, first compound 1 µM) 23.1%; (second compound 10 µM, first compound 3.16 µM) 21%; (second compound 10 µM, first compound 10 µM) 22.4%.
With `CCC(CC)c1cc(NC2CCC(N)C2)n2nccc2n1` (centres undefined), the viability, T/C by setting is: (compound 0.316 µM) 105% [middle of 4 runs]; (compound 1 µM) 81.9% [middle of 4 runs]; (compound 3.16 µM) 1.5% [middle of 4 runs]; (compound 10 µM) 1.88% [middle of 4 runs]. Further, the IC50 (curve of compound) is 1.57 µM [middle of 4 runs].
In the case of `CCn1c(-c2cccnc2C(C)OC)c2c3cc(ccc31)N1CCOC(CC(NC(=O)C(C(C)C)N(C)C(=O)C3(F)CCN(C(=O)C#CC(C)(C)N(C)C)CC3)C(=O)N3CCCC(N3)C(=O)OCC(C)(C)C2)C1` (centres undefined), the viability, T/C by setting is: (compound 0.000949 µM) 102% [middle of 8 runs]; (compound 0.003 µM) 99.7% [middle of 8 runs]; (compound 0.00949 µM) 104% [middle of 8 runs]; (compound 0.03 µM) 103% [middle of 8 runs]; (compound 0.0949 µM) 103% [middle of 8 runs]; (compound 0.3 µM) 90% [middle of 8 runs]. In addition, the IC50 (compound alone, run of 07/09/2024) is over 300 nM.
